In paper PMC7717565, “Structure of the Lifeact–F-actin complex” (PLoS Biology, 2020):
Where no end group is shown, it is not given here.

How the values were obtained:
F-actin [1] = target: F-actin (Oryctolagus cuniculus, UniProt P68135); assay: Cosedimentation of Lifeact–mCherry with F-actin; assay type: binding, Rabbit (skeletal muscle α-actin); set-up: Bmax Value: unit not given here
[2] = tested on: ExoY-MBP binding to F-actin; assay: Competition cosedimentation of F-actin with ExoY-MBP; set-up: species or system Pseudomonas aeruginosa ExoY; rabbit actin; conditions: for fraction of ExoY cosedimented with F-actin: Lifeact 300 uM, F-actin 1 μM, ExoY-MBP 1 μM
TccC3HVR = assay: ADP-ribosylation of actin by TccC3HVR; assay type: biochemical, Photorhabdus luminescens; conditions: for ADP-ribosylation level of actin (0 uM Lifeact = 1): Lifeact 100 uM, pH 8, 10 min 37°C
[3] = tested on: human cofilin-1 binding to F-actin; assay: Competition cosedimentation of F-actin with cofilin-1; conditions: Lifeact 100 uM, F-actin 4 μM, cofilin-1 4 μM, pH 6.5
Experimental: (§1) An aliquot of freshly thawed G-actin was centrifuged at 150,000 g using a TLA-55 rotor for 30 minutes at 4°C to remove possible aggregates. Then, actin was polymerized by incubation in F-buffer (120 mM KCl, 20 mM Tris pH 8, 2 mM MgCl2, 1 mM DTT, and 1 mM ATP) for 2 hours at room temperature or overnight at 4°C. For the cosedimentation experiments with myosin and tropomyosin, a 2-fold molar excess of phalloidin was added after the polymerization. Then, the actin filaments were pelleted using a TLA-55 rotor at 150,000 g for 30 minutes and resuspended in the following buffers: F-buffer was used for cosedimentations with tropomyosin or Lifeact–mCherry fusion proteins; 20 mM HEPES pH 6.5, 50 mM KCl, and 2 mM MgCl2 was used for cosedimentations with cofilin; and 120 mM KCl, 20 mM Tris pH 8, 2 mM MgCl2, and 1 mM DTT was used for cosedimentations with myosin.
(§2) For the competition assays, Lifeact peptide was added to the mixture at the specified concentrations. […] The Kd values were calculated as previously described using GraphPad Prism software (GraphPad Software, USA) [34].
(§3) Representative gels are shown. […] The error bars correspond to standard deviations of 3 independent experiments.

[4] = tested on: human tropomyosin alpha-1 binding to F-actin; assay: Competition cosedimentation of F-actin with tropomyosin; conditions: Lifeact 100 uM, F-actin 3 μM, tropomyosin 3 μM
Experimental: as §1, §2, §3

[5] = tested on: motor domain of human NM2C binding to F-actin; assay: Competition cosedimentation of F-actin with NM2C motor domain; conditions: for fraction of myosin cosedimented with F-actin: Lifeact 100 uM, F-actin 0.2 μM, NM2C 0.2 μM, pH 8
Experimental: The motor domain of nonmuscular myosin-2C (MYH14, isoform 2 from Homo sapiens) consisting of amino acids 1–799 was purified as described previously [32]
Then, actin was polymerized by incubation in F-buffer (120 mM KCl, 20 mM Tris pH 8, 2 mM MgCl2, 1 mM DTT, and 1 mM ATP) for 2 hours at room temperature or overnight at 4°C. For the cosedimentation experiments with myosin and tropomyosin, a 2-fold molar excess of phalloidin was added after the polymerization. Then, the actin filaments were pelleted using a TLA-55 rotor at 150,000 g for 30 minutes and resuspended in the following buffers: F-buffer was used for cosedimentations with tropomyosin or Lifeact–mCherry fusion proteins; 20 mM HEPES pH 6.5, 50 mM KCl, and 2 mM MgCl2 was used for cosedimentations with cofilin; and 120 mM KCl, 20 mM Tris pH 8, 2 mM MgCl2, and 1 mM DTT was used for cosedimentations with myosin.
as §2
The error bars correspond to standard deviations of 3 independent experiments.

F-actin [6] = conditions: ref [5],[6]; cited from earlier work
Text: Phalloidin and jasplakinolide are cyclic peptides derived from the death cap mushroom Amanita phalloides and marine sponge Jaspis johnstoni, respectively. They bind specifically to filamentous actin (F-actin), and when fused to a fluorescent probe, their derivatives allow visualization of the cell cytoskeleton by fluorescence microscopy. […] Recent electron cryo-microscopy (cryo-EM) studies from our group and others have uncovered h ...

[7] = tested on: F-actin in yeast cells, WT actin; assay type: cell-based, Saccharomyces cerevisiae; conditions: for weighted colocalization coefficient of phalloidin with Lifeact–mCherry: native ABP140 promoter, fixed cells, ActinGreen 488, Fig 2B, mean of 15 cells from 2 independent experiments
[8] = tested on: F-actin-rich patch in yeast cells; assay type: cell-based, Saccharomyces cerevisiae; conditions: Fig 3D
[9] = tested on: F-actin-rich patch in yeast cells; assay type: cell-based, Saccharomyces cerevisiae; conditions: Fig 3E
[10] = tested on: HEK 293T cells intoxicated with PTC3; assay: Intoxication competition assay with PTC3 in HEK 293T cells (cell area); assay type: cell-based, human; conditions: 300 pM PTC3, 5 h, mCherry fusion expressed
[11] = tested on: F-actin in yeast cells, actin D25Y/D222G; assay type: cell-based, Saccharomyces cerevisiae; conditions: confocal microscopy, Fig 2C, endogenous actin replaced with D25Y variant
[12] = tested on: F-actin in yeast cells, actin L349M; assay type: cell-based, Saccharomyces cerevisiae; conditions: confocal microscopy, Fig 2C, endogenous actin replaced with L349M variant

## F10A Lifeact: Lifeact F10A mutant peptide, which only binds weakly to F-actin (MGVADLIKKAESISKEE)
F-actin [1]; in words, no value
  binding to F-actin: only binds weakly to F-actin
[2]; Fig 5A, 5B
  effect on ExoY binding to F-actin: did not impair formation of the ExoY-F-actin complex
[2]; 1st repeat
  fraction of ExoY cosedimented with F-actin: 0.8832
[2]; 2nd repeat
  fraction of ExoY cosedimented with F-actin: 0.8982
[2]; 3rd repeat
  fraction of ExoY cosedimented with F-actin: 0.9357
[2]; mean of 3
  fraction of ExoY cosedimented with F-actin: 0.9057
TccC3HVR; 100 μM, control reaction
  effect on the level of ADP-ribosylation: did not decrease the level of ADP-ribosylation at all
TccC3HVR; 1st repeat
  ADP-ribosylation level of actin (0 uM Lifeact = 1): 1.142
TccC3HVR; 2nd repeat
  ADP-ribosylation level of actin (0 uM Lifeact = 1): 1.587
TccC3HVR; 3rd repeat
  ADP-ribosylation level of actin (0 uM Lifeact = 1): 0.8227
TccC3HVR; mean of 3
  ADP-ribosylation level of actin (0 uM Lifeact = 1): 1.184
[3]; 1st repeat
  fraction of cofilin cosedimented with F-actin: 0.5246
[3]; 2nd repeat
  fraction of cofilin cosedimented with F-actin: 0.4576
[3]; 3rd repeat
  fraction of cofilin cosedimented with F-actin: 0.5496
[3]; mean of 3
  fraction of cofilin cosedimented with F-actin: 0.5106
[4]; 1st repeat
  fraction of tropomyosin cosedimented with F-actin: 0.4801
[4]; 2nd repeat
  fraction of tropomyosin cosedimented with F-actin: 0.5601
[4]; 3rd repeat
  fraction of tropomyosin cosedimented with F-actin: 0.4901
[4]; mean of 3
  fraction of tropomyosin cosedimented with F-actin: 0.5101
[5]; Fig 4B, 4C
  effect on myosin binding to F-actin: nor could F10A Lifeact compete with cofilin-1 or NM2C
[5]; 1st repeat
  fraction of myosin cosedimented with F-actin: 0.8484
[5]; 2nd repeat
  fraction of myosin cosedimented with F-actin: 0.9522
[5]; 3rd repeat
  fraction of myosin cosedimented with F-actin: 0.8926
[5]; mean of 3
  fraction of myosin cosedimented with F-actin: 0.8977

## jasplakinolide
F-actin [6]
  effect on F-actin: strongly stabilize F-actin

## Phalloidin
F-actin [6]
  effect on F-actin: strongly stabilize F-actin

## E17K: Lifeact E17K variant fused to mCherry (MGVADLIKKFESISKEK; also: fused to mCherry, His tag, end not given here)
F-actin [1]; 3 μM Lifeact–mCherry, F-buffer pH 8, fit value, Std dev in next column
  Bmax Value: 0.9222
F-actin [1]; 3 μM Lifeact–mCherry, F-buffer pH 8, full-precision fit value, Std dev in next column, unit as printed in Fig 3C
  Kd: 8.08 µM
[7]; confocal microscopy, Fig 2A
  staining of actin-rich structures compared with WT: stained actin-rich structures in a similar way as WT Lifeact
[7]
  weighted colocalization coefficient of phalloidin with Lifeact–mCherry: 0.8293
[8]
  change of average Lifeact–mCherry to phalloidin signal ratio vs WT: insignificant increase
[9]
  change of average patch to background signal ratio vs WT: insignificant increase
[10]
  effect on PTC3/TccC3HVR toxicity (cytoskeletal collapse, shrinkage): significantly reduced

## WT Lifeact–mCherry: wild-type Lifeact fused to mCherry [reference compound]
[7]; confocal microscopy, Fig 2A
  actin-rich structures (patches, cables, contractile rings) stained by Lifeact–mCherry: typical actin-rich assemblies such as patches, cables, and contractile rings
[7]
  weighted colocalization coefficient of phalloidin with Lifeact–mCherry: 0.9009
[11]
  actin-rich structures stained by Lifeact–mCherry: absent
[12]
  actin-rich structures stained by Lifeact–mCherry: absent
TccC3HVR; 3 μM
  factor of decrease of the level of ADP ribosylation: 2
[10]
  effect on PTC3/TccC3HVR toxicity (cytoskeletal collapse, shrinkage): significantly reduced
